For assay [1], the target named is T1, RyR2 (Sus scrofa, UniProt A0A5G2R1W3). Kind of assay: FLT-FRET between D-FKBP and A-CaM bound to RyR2 in cardiac SR membranes (dose-response). Type of assay: binding, porcine. The arrangement: RyR1 in skeletal SR membranes, and RyR2 in cardiac SR membranes; from tissue; host or cells: porcine cardiac left ventricle (crude SR vesicles). The conditions noted are these: 30 nM Ca2+; for IC50: RyR2, cardiac SR. How it is done:
(§1) Necessary counter-screens to our pathological RyR1 conditions include evaluating compound effects in healthy conditions and on the cardiac isoform, RyR2. Using the same FRET assay as in HTS, we tested the dose response of key Hits from this screen and the previously HTS-identified RyR1 inhibitor, chloroxine, on healthy (5 mM GSH) and pathological (5 mM GSSG) conditions for both RyR1 in skeletal SR membranes, and RyR2 in cardiac SR membranes.
(§2) Skeletal HSR and cardiac CSR (0.4 mg/ml) membranes were independently pre-incubated with 60 nM D-FKBP, for 90 min, at 37 °C, in a solution containing 150 mM KCl, 5 mM GSH, 0.1 mg/mL BSA, 1 µg/mL Aprotinin/Leupeptin, 1 mM DTT and 20 mM PIPES (pH 7.0). To remove unbound D-FKBP, the SR membranes were spun down at 110,000 × g for 20 min, and then resuspended to 1 mg/mL (skeletal HSR) and 2 mg/mL (cardiac CSR) in binding buffer consisting of 150 mM KCl, 5 mM GSSG, 0.1 mg/mL BSA, 1μg/mL Aprotinin/Leupeptin and 20 mM PIPES, pH 7.0. These samples were then incubated with indicated [A-CaM] for 30 min at 22 °C in binding buffer containing 0.065 mM CaCl2 to give 30 nM free Ca^2+ in the presence of 1 mM EGTA (calculated by MaxChelator). This labeled SR sample was applied to the assay plates in 5 μL aliquots using a Multidrop™ Combi reagent dispenser (Thermo Scientific) with a standard-tube. An additional set of the assay plates were loaded with skeletal HSR or cardiac CSR labeled with only D-FKBP (no added A-CaM).
(§3) FLT measurements were conducted in a top-read FLT-PR designed and built by Fluorescence Innovations, Inc[33]. AF488 donor fluorescence was excited with a 473-nm microchip laser from Concepts Research Corporation (Belgium, WI), and emission was acquired with 490-nm long-pass and 517/20-nm band-pass filters (Semrock, Rochester, NY).
FLT waveforms for each well were fit based on a one-exponential decay function using least-squares minimization global-analysis software (Fluorescence Innovations, Inc.), as previously described[19],[33]. FRET efficiency (E) was determined as the fractional decrease of donor FLT (τD), due to the presence of acceptor fluorophore (τDA), using the following equation:1 E=1−τDA/τD,

Assay [2] has as its target T2, RyR1 (Sus scrofa, UniProt P16960). The assay can be described thus: F-FKBP binding to RyR1 by co-sedimentation with skeletal SR membranes. More on the design: using co-sedimentation with pig skeletal and cardiac SR membranes; from tissue; host or cells: pig skeletal muscle (heavy SR membranes); species or system pig. Conditions: RyR1, 10 μM Hit, 30 nM Ca2+, 5 mM GSSG or GSH. How it is done: (§4) The Hit-induced effect on FRET between D-FKBP and A-CaM most likely results from one or the combination of factors, including a shift in CaM and/or FKBP12.6 binding, and/or structure of the RyR complex that shifts the D-A distance. Under the same assay conditions as in the primary screen, we assessed the effect of 10 μM Hit on fluorescent FKBP12.6 (F-FKBP) binding to RyRs, using co-sedimentation with pig skeletal and cardiac SR membranes.
(§5) Supplementary Fig. 3 Effect of HTS Hits on F-FKBP binding to a) RyR1 in skeletal HSR membranes, and b) RyR2
(§6) in cardiac CSR membranes at 30 nM Ca2+ in the presence of 5 mM GSSG or GSH. Results are represented as individual
(§7) data points and means ± SEM, n = 4-5. *P < 0.05 by 2-sided Student’s unpaired t-test. […]

Assay [3] addresses T2, RyR1. Kind of assay: FLT-FRET between D-FKBP and A-CaM bound to RyR1 in skeletal SR membranes (HTS and dose-response). More on the design: RyR1 in skeletal SR membranes, and RyR2 in cardiac SR membranes; from tissue; host or cells: porcine longissimus dorsi muscle (heavy SR vesicles). Type of assay: binding, porcine. Conditions: for Hit in primary FLT-FRET HTS of LOPAC (FRET altered by > 4 SD vs DMSO): 10 μM compound, 2-hour incubation, 0.3 μM A-CaM, 1536-well; for IC50: RyR1, skeletal SR. How it is done: To confer compatibility with current HTS standards in industrial drug discovery facilities, we miniaturized our screening format from the previously established 384-well plates, requiring 50 μL sample per well[19], to 1536-well plates, requiring 5 μL sample per well. The complete 1280-compound library of pharmacologically active compounds (LOPAC) was applied as 5 nL/well in 40 columns of one 1536-well black-wall/black-bottom plate, with the remaining 8 columns loaded with 5 nL/well of DMSO, as no-drug controls. For each run of the screen, three plates were loaded with either (1) unlabeled HSR, or (2) HSR pre-incubated with donor-FKBP (D-FKBP; donor-only sample), or (3) donor-only sample that was additionally incubated with 0.3 μM acceptor-CaM (A-CaM) for 60 min prior to loading on the plate (donor-acceptor sample). This sub-saturating concentration of A-CaM was used to provide a readout that is sensitive to library compounds that may increase or decrease CaM binding affinity to RyR. To promote a homogenous population of RyR1 resembling that associated with myopathies, final assay conditions also included 30 nM Ca^2+ to represent resting (muscle relaxing) Ca^2+, and 5 mM oxidized glutathione (GSSG), which exaggerates the conditions associated with oxidative stress.
We acquired both FLT waveforms and fluorescence spectra, as previously described[19],[33],[34]. As previously observed, Hit effects were greatest following a 2-hour incubation with the library compounds (Supplementary Fig. 1a). As a result, all FRET results shown in Figs. 1 and 2, and Supplementary Fig. 2 are reported from the 2-hour incubation.
as §1, §2, §3
FLT waveforms for each well were fit based on a one-exponential decay function using least-squares minimization global-analysis software (Fluorescence Innovations, Inc.), as previously described[19],[33]. FRET efficiency (E) was determined as the fractional decrease of donor FLT (τD), due to the presence of acceptor fluorophore (τDA), using the following equation:1 E=1−τDA/τD, […]

For assay [4], the target named is T1, RyR2. The assay can be described thus: F-FKBP binding to RyR2 by co-sedimentation with cardiac SR membranes. The arrangement: using co-sedimentation with pig skeletal and cardiac SR membranes; from tissue; host or cells: pig cardiac muscle (crude SR membranes); species or system pig. Conditions: RyR2, 10 μM Hit, 30 nM Ca2+, 5 mM GSSG or GSH. How it is done: as §4, §5, §6, §7

The target of assay [5] is ryanodine receptor, skeletal muscle isoform (RyR1), in porcine skeletal heavy SR membranes (pig (endogenous in porcine longissimus dorsi muscle)) (UniProt P16960). Kind of assay: co-sedimentation; fluorescent FKBP12.6 co-sedimented with pig skeletal and cardiac SR membranes, same conditions as the primary screen; with 10 μM temsirolimus or tacrolimus.
The target of assay [6] is ryanodine receptor, cardiac isoform (RyR2), in porcine cardiac SR membranes (pig (endogenous in porcine cardiac left ventricle)). Described as above.
In assay [7] the target is ryanodine receptor, skeletal muscle isoform (RyR1), in porcine skeletal heavy SR membranes (pig (endogenous in porcine longissimus dorsi muscle)) (UniProt P16960). The assay can be described thus: FRET or BRET; same FLT-FRET read-out with temsirolimus (dose response); skeletal and cardiac SR membranes, 30 nM Ca2+, 5 mM GSSG or GSH. (In BRET a luciferase serves as donor, and the signal depends on an acceptor being close.)

The target of assay [8] is ryanodine receptor, cardiac isoform (RyR2), in porcine cardiac SR membranes (pig (endogenous in porcine cardiac left ventricle)). The assay is described as above.

T2 sequence (P16960 whole entry): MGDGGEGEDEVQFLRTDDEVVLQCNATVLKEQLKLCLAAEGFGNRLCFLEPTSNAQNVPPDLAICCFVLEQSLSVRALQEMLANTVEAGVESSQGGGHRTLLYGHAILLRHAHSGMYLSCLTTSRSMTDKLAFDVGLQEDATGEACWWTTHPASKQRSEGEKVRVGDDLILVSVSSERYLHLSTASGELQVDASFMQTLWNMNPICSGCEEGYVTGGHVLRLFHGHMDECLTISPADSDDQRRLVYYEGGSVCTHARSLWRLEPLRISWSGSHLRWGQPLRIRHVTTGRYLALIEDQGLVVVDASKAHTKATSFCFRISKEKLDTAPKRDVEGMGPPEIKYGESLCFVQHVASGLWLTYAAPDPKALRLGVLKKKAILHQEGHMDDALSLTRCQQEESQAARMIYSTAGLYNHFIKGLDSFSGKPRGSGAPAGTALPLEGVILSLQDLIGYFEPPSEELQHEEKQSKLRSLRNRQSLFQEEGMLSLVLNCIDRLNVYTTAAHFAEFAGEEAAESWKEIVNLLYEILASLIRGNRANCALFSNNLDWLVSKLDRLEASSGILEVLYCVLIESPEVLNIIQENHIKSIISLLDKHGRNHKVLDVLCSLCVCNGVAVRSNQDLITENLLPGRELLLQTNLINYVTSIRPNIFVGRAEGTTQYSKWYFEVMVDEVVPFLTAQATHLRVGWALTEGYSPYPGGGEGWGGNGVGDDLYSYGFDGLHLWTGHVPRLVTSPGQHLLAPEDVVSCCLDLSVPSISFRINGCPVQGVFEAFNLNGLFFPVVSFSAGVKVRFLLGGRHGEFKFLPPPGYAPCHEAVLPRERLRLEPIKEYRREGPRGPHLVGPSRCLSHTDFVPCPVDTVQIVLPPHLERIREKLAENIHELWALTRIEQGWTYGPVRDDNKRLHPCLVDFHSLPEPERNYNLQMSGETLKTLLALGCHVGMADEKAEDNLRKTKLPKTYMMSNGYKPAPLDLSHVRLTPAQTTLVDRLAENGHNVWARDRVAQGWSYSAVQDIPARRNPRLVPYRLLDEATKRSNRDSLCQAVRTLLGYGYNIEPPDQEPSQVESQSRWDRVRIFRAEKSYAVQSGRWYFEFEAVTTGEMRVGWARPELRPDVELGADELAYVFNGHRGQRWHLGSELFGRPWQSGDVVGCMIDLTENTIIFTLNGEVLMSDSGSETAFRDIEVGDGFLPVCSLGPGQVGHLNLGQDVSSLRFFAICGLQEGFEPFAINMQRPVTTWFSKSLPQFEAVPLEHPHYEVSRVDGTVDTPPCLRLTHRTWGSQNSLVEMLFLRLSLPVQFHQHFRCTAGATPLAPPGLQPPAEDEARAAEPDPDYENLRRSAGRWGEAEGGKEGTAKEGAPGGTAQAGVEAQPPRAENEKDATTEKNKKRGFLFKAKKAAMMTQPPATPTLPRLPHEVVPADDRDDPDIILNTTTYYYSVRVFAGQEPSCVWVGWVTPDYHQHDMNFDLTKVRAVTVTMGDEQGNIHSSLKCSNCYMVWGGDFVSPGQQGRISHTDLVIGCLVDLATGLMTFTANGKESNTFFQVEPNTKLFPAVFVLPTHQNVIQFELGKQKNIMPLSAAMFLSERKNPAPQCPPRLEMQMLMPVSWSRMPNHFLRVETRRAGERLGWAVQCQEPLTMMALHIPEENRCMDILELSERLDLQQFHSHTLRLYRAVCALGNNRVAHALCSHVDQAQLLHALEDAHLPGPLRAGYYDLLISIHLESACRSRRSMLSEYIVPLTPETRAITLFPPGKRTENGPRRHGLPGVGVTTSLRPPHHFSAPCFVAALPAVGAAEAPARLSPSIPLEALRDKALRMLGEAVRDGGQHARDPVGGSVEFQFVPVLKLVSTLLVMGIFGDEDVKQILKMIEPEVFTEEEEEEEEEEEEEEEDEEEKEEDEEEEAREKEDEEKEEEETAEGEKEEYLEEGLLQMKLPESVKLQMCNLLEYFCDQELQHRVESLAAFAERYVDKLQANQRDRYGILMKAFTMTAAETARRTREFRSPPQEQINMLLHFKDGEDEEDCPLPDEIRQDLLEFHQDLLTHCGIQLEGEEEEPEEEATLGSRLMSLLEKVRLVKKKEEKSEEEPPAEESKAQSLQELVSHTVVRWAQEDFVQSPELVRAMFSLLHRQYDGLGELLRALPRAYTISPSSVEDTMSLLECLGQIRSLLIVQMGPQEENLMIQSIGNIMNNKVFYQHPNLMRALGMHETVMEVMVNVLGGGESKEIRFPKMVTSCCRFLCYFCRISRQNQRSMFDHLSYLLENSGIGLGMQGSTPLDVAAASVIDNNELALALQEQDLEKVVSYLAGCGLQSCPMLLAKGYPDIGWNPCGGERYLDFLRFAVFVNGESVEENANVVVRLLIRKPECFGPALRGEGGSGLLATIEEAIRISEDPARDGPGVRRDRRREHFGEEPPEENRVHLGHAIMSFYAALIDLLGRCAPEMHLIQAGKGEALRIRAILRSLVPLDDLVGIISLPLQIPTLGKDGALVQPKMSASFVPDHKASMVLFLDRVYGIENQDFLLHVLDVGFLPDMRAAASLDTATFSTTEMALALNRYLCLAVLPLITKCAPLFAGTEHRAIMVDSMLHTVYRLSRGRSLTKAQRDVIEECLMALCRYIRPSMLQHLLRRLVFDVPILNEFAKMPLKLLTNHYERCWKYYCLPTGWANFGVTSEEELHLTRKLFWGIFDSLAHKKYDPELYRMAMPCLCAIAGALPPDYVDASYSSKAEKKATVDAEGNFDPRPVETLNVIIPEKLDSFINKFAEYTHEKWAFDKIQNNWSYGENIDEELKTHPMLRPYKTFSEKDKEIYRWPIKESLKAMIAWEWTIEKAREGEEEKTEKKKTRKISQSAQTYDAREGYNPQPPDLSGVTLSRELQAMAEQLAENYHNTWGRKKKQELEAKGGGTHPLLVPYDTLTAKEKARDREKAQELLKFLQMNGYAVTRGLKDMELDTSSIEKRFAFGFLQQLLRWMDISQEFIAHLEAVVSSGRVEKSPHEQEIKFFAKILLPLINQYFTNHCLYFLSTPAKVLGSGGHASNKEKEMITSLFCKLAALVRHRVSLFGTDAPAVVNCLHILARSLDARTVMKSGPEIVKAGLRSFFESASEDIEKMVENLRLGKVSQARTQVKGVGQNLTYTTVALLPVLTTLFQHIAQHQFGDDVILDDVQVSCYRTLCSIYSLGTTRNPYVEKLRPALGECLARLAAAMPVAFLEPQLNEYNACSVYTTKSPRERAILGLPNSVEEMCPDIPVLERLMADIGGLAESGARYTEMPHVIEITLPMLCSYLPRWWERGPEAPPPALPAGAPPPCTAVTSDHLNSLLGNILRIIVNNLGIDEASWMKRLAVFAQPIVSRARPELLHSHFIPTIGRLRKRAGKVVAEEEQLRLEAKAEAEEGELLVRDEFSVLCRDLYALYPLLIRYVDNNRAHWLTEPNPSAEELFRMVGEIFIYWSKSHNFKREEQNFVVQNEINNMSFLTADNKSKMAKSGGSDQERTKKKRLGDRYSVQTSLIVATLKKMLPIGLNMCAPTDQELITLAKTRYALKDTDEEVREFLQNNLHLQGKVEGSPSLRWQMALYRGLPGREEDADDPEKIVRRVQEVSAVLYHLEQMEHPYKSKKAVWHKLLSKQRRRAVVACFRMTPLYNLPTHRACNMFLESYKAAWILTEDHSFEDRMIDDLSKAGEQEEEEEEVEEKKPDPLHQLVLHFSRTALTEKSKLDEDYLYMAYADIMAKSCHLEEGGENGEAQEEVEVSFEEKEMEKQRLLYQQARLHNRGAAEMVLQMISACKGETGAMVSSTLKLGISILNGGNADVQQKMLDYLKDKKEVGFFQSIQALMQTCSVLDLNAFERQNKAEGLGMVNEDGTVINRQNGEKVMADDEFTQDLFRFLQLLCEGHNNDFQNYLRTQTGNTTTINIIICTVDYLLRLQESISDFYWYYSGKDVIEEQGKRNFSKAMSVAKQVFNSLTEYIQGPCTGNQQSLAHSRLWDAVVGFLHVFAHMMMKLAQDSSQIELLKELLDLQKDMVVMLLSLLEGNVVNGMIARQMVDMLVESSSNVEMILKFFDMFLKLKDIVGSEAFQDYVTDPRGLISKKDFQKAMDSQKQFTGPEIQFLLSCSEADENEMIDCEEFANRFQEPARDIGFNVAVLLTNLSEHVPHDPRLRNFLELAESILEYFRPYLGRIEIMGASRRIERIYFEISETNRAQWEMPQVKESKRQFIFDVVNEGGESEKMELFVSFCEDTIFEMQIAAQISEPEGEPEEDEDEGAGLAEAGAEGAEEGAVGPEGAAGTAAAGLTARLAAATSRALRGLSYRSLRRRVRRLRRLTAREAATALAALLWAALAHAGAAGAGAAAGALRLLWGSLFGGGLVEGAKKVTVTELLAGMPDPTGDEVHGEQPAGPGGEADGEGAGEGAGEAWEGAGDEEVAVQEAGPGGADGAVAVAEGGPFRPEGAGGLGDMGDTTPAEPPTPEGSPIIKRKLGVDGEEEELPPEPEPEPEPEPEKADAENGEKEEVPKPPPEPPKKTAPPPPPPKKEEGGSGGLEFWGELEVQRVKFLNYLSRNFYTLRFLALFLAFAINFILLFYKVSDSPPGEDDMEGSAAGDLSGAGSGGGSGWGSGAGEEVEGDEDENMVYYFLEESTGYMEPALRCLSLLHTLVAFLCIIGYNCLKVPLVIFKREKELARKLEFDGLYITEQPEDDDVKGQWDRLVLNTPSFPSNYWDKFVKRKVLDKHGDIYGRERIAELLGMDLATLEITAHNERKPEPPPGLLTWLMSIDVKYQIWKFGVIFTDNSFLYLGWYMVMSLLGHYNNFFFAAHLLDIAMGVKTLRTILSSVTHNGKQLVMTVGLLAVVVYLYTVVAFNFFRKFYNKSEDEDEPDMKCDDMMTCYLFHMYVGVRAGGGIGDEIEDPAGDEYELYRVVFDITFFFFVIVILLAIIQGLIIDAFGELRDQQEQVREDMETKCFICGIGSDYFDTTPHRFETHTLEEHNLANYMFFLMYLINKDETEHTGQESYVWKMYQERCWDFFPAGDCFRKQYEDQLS

For `Cc1ccc(C(=O)Nc2ccc(S(=O)(=O)O)c3cc(S(=O)(=O)O)cc(S(=O)(=O)O)c23)cc1NC(=O)c1cccc(NC(=O)Nc2cccc(C(=O)Nc3cc(C(=O)Nc4ccc(S(=O)(=O)O)c5cc(S(=O)(=O)O)cc(S(=O)(=O)O)c45)ccc3C)c2)c1` [suramin], the IC50 (usually the point on the concentration scale where inhibition reaches its midpoint) at RyR2 [1] (5 mM GSH) amounted to 2.5 ± 0.3 µM; at RyR2 [1] (5 mM GSSG) it was 2.4 ± 0.6 µM; against RyR1 [3] (30 nM Ca2+, 5 mM GSH), 5.9 ± 0.7 µM; against RyR1 [3] (30 nM Ca2+, 5 mM GSSG), 7.1 ± 0.5 µM. Moreover, the “Decrease of F-FKBP binding” value on RyR1 [2] and at RyR2 [4] was “did not alter” in each case. On RyR1 [3] (30 nM Ca2+, 5 mM GSSG), the “Hit in primary FLT-FRET HTS of LOPAC (FRET altered by > 4 SD vs DMSO)” value is “identified”. The “Influence of GSSG vs GSH on the FRET dose-response effect” value at RyR1 [3] (5 mM GSSG vs 5 mM GSH, isoform not given (figures show skeletal and cardiac SR)) is “not altered by GSH or GSSG”. For the same molecule, the “Compound concentration at which FRET is abolished” value at RyR1 [3] (FRET dose-response, isoform not given (figures show skeletal and cardiac SR)) was no more than 20 µM.

As for `CO[C@H]1C[C@@H]2CC[C@@H](C)[C@@](O)(O2)C(=O)C(=O)N2CCCC[C@H]2C(=O)O[C@H]([C@H](C)C[C@@H]2CC[C@@H](OC(=O)C(C)(CO)CO)[C@H](OC)C2)CC(=O)[C@H](C)/C=C(\C)[C@@H](O)[C@@H](OC)C(=O)[C@H](C)C[C@H](C)/C=C/C=C/C=C/1C` [temsirolimus], the FRET reduction was 68–70% on RyR2 [1] (RyR2, dose-response) and ~ 10% at RyR1 [3] (RyR1, dose-response, 30 nM Ca2+). The “Decrease of F-FKBP binding” value on RyR1 [2] was 20%; on RyR2 [4] it was 70%. Also, the “Hit in primary FLT-FRET HTS of LOPAC (FRET altered by > 4 SD vs DMSO)” value on RyR1 [3] (30 nM Ca2+, 5 mM GSSG) is on record as “identified”.

In the case of “FKBP12.6 single-cysteine mutant (C22A/T85C/C76I) labeled with AF488 (donor-FKBP) (natural protein)”, the percent decrease of binding with 10 μM temsirolimus or tacrolimus in assay [5] was 20%; in assay [6], 70%. Moreover, the FRET reduction by temsirolimus in assay [7] was 10%; in assay [8], 68 to 70%.

The values above are taken from PMC7000700, “RyR1-targeted drug discovery pipeline integrating FRET-based high-throughput screening and human myofiber dynamic Ca^2+ assays” (Scientific Reports, 2020).
